Experimental data taken from ChEMBL document CHEMBL4507304, “Data for DCP probe TP-021” (2021).

Experiments:
[1] = biological target: Mitogen-activated protein kinase kinase kinase kinase 4 (Homo sapiens) (UniProt O95819); settings: Compound concentration 1000.0 nM
[2] = biological target: Serine/threonine-protein kinase 25 (Homo sapiens) (UniProt O00506); settings: Compound concentration 1000.0 nM
[3] = test system: Tyrosine-protein kinase ABL1 (Homo sapiens), P00519 [H396P]; settings: Compound concentration 1000.0 nM
[4] = biological target: Activin receptor type-1 (Homo sapiens) (UniProt Q04771); settings: Compound concentration 1000.0 nM
[5] = biological target: Ephrin type-B receptor 1 (Homo sapiens) (UniProt P54762); settings: Compound concentration 1000.0 nM
[6] = biological target: MAP kinase-activated protein kinase 2 (Homo sapiens) (UniProt P49137); settings: Compound concentration 1000.0 nM
[7] = biological target: Rho-associated protein kinase 1 (Homo sapiens) (UniProt Q13464); settings: Compound concentration 1000.0 nM
[8] = biological target: Serine/threonine-protein kinase NLK (Homo sapiens) (UniProt Q9UBE8); settings: Compound concentration 1000.0 nM
[9] = test system: Tyrosine-protein kinase ABL1 (Homo sapiens), P00519 [Q252H]; settings: Compound concentration 1000.0 nM
[10] = biological target: Dual specificity tyrosine-phosphorylation-regulated kinase 1A (Homo sapiens) (UniProt Q13627); settings: Compound concentration 1000.0 nM
[11] = biological target: Calcium/calmodulin-dependent protein kinase type 1D (Homo sapiens) (UniProt Q8IU85); settings: Compound concentration 1000.0 nM
[12] = biological target: Platelet-derived growth factor receptor alpha (Homo sapiens) (UniProt P16234); settings: Compound concentration 1000.0 nM
[13] = test system: Tyrosine-protein kinase ABL1 (Homo sapiens), P00519 [E255K]; settings: Compound concentration 1000.0 nM
[14] = biological target: Receptor-interacting serine/threonine-protein kinase 2 (Homo sapiens) (UniProt O43353); settings: Compound concentration 1000.0 nM
[15] = biological target: 5-hydroxytryptamine receptor 1A (Homo sapiens) (UniProt P08908); settings: Compound concentration 10.0 uM
[16] = biological target: Misshapen-like kinase 1 (Homo sapiens) (UniProt Q8N4C8); settings: Compound concentration 1000.0 nM
[17] = biological target: Ribosomal protein S6 kinase alpha-4 (Homo sapiens) (UniProt O75676); settings: Compound concentration 1000.0 nM
[18] = biological target: Myosin light chain kinase (Homo sapiens) (UniProt Q32MK0); settings: Compound concentration 1000.0 nM
[19] = biological target: Phosphatidylinositol 4-phosphate 5-kinase type-1 alpha (Homo sapiens) (UniProt Q99755); settings: Compound concentration 1000.0 nM
[20] = test system: Phosphatidylinositol 4,5-bisphosphate 3-kinase catalytic subunit alpha isoform (Homo sapiens), P42336 [M1043I]; settings: Compound concentration 1000.0 nM
[21] = biological target: Casein kinase I isoform gamma-3 (Homo sapiens) (UniProt Q9Y6M4); settings: Compound concentration 1000.0 nM
[22] = biological target: Cyclin-dependent kinase 2 homolog (Plasmodium falciparum (isolate 3D7)) (UniProt P61075); settings: Compound concentration 1000.0 nM
[23] = biological target: 5-hydroxytryptamine receptor 2B (Homo sapiens) (UniProt P41595); settings: Compound concentration 10.0 uM
[24] = biological target: Cyclin-dependent kinase 19 (Homo sapiens) (UniProt Q9BWU1); settings: Compound concentration 1000.0 nM
[25] = biological target: Serine/threonine-protein kinase PRP4 homolog (Homo sapiens) (UniProt Q13523); settings: Compound concentration 1000.0 nM
[26] = biological target: Muscarinic acetylcholine receptor M1 (Homo sapiens) (UniProt P11229); settings: Compound concentration 10.0 uM
[27] = biological target: Serine/threonine-protein kinase Nek1 (Homo sapiens) (UniProt Q96PY6); settings: Compound concentration 1000.0 nM
[28] = biological target: Dual specificity testis-specific protein kinase 1 (Homo sapiens) (UniProt Q15569); settings: Compound concentration 1000.0 nM
[29] = biological target: AP2-associated protein kinase 1 (Homo sapiens) (UniProt Q2M2I8); settings: Compound concentration 1000.0 nM
[30] = biological target: Serine/threonine-protein kinase Chk1 (Homo sapiens) (UniProt O14757); settings: Compound concentration 1000.0 nM
[31] = biological target: Beta-adrenergic receptor kinase 1 (Homo sapiens) (UniProt P25098); settings: Compound concentration 1000.0 nM
[32] = biological target: Serine/threonine-protein kinase Nek2 (Homo sapiens) (UniProt P51955); settings: Compound concentration 1000.0 nM
[33] = biological target: Serine/threonine-protein kinase 36 (Homo sapiens) (UniProt Q9NRP7); settings: Compound concentration 1000.0 nM
[34] = biological target: Serine/threonine-protein kinase D1 (Homo sapiens) (UniProt Q15139); settings: Compound concentration 1000.0 nM
[35] = biological target: Mitogen-activated protein kinase 4 (Homo sapiens) (UniProt P31152); settings: Compound concentration 1000.0 nM
[36] = biological target: Aurora kinase C (Homo sapiens) (UniProt Q9UQB9); settings: Compound concentration 1000.0 nM
[37] = biological target: Serine/threonine-protein kinase MAK (Homo sapiens) (UniProt P20794); settings: Compound concentration 1000.0 nM
[38] = biological target: 3-phosphoinositide-dependent protein kinase 1 (Homo sapiens) (UniProt O15530); settings: Compound concentration 1000.0 nM
[39] = biological target: Myosin light chain kinase family member 4 (Homo sapiens) (UniProt Q86YV6); settings: Compound concentration 1000.0 nM
[40] = biological target: Serine/threonine-protein kinase TAO3 (Homo sapiens) (UniProt Q9H2K8); settings: Compound concentration 1000.0 nM
[41] = biological target: Serine/threonine-protein kinase tousled-like 1 (Homo sapiens) (UniProt Q9UKI8); settings: Compound concentration 1000.0 nM
[42] = biological target: High affinity nerve growth factor receptor (Homo sapiens) (UniProt P04629); settings: Compound concentration 1000.0 nM
[43] = biological target: Inhibitor of nuclear factor kappa-B kinase subunit alpha (Homo sapiens) (UniProt O15111); settings: Compound concentration 1000.0 nM
[44] = biological target: Protein-tyrosine kinase 6 (Homo sapiens) (UniProt Q13882); settings: Compound concentration 1000.0 nM
[45] = biological target: Casein kinase I isoform gamma-1 (Homo sapiens) (UniProt Q9HCP0); settings: Compound concentration 1000.0 nM

Receptor-interacting serine/threonine-protein kinase 2 (Homo sapiens), sequence (O43353 whole entry): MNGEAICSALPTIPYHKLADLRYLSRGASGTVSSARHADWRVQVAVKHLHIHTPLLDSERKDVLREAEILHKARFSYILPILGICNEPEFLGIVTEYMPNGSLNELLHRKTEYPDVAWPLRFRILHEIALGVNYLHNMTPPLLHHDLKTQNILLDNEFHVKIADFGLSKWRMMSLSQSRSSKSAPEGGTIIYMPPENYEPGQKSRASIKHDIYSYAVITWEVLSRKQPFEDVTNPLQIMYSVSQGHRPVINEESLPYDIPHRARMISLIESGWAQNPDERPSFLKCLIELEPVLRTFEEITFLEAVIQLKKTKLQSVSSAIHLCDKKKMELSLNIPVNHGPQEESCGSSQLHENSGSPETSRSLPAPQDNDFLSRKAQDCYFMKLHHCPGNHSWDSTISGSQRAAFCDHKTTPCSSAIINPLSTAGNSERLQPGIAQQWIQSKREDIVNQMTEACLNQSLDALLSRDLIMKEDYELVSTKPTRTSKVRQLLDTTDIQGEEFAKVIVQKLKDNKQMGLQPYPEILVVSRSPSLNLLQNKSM
Phosphatidylinositol 4-phosphate 5-kinase type-1 alpha (Homo sapiens), sequence (Q99755 whole entry, canonical isoform): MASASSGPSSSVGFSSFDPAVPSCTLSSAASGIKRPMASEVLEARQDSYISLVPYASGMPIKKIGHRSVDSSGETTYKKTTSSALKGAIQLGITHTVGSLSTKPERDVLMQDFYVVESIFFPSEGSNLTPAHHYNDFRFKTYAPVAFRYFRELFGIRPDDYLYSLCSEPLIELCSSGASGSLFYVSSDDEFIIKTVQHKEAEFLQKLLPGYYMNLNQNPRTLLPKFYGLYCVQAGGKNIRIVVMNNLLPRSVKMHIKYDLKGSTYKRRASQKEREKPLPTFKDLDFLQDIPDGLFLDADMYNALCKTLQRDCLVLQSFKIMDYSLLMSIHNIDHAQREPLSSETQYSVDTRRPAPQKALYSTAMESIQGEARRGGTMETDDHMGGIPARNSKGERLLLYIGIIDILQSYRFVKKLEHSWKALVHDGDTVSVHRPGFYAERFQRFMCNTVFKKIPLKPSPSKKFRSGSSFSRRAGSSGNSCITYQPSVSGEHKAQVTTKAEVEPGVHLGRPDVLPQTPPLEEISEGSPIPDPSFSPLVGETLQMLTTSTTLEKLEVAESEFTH
5-hydroxytryptamine receptor 2B (Homo sapiens), sequence (P41595 whole entry): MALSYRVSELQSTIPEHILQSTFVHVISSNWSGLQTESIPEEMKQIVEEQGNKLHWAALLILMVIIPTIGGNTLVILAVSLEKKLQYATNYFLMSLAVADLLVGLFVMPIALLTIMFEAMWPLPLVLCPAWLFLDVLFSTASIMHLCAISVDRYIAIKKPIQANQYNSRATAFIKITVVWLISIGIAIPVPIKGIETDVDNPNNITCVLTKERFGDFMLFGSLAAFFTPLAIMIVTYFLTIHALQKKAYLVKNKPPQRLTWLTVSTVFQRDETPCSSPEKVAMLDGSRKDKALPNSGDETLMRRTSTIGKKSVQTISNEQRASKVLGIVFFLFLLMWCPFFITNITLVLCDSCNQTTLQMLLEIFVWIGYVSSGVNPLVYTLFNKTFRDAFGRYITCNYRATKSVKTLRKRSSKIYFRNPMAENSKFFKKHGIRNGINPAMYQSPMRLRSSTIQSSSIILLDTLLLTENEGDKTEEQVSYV
Serine/threonine-protein kinase PRP4 homolog (Homo sapiens), sequence (Q13523 whole entry): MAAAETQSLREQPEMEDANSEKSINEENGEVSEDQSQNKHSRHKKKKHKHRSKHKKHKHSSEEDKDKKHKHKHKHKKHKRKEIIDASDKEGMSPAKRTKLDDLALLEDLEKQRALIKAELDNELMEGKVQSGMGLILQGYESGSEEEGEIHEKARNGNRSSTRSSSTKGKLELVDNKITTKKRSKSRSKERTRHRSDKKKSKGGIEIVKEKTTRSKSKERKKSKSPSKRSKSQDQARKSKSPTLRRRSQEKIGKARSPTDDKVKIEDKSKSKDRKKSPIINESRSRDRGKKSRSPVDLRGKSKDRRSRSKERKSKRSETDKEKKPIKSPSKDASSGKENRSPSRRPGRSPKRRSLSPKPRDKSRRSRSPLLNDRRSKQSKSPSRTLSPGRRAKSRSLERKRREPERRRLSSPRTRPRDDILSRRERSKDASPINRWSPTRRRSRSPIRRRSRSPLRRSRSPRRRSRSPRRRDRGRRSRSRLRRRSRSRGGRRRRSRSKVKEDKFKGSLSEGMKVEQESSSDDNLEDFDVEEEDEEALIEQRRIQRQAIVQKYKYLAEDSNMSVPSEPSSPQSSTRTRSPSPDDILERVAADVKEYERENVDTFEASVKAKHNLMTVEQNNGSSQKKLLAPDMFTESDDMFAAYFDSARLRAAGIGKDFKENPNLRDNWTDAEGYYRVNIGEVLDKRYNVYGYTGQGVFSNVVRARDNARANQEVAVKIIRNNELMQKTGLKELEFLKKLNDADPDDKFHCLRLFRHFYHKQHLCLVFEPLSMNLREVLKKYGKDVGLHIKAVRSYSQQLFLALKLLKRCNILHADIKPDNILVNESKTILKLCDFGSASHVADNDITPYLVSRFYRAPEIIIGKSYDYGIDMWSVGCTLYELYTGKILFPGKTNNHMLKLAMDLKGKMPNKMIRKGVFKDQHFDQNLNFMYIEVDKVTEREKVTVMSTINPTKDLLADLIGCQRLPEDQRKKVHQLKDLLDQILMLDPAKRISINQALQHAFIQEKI
Serine/threonine-protein kinase Nek2 (Homo sapiens), sequence (P51955 whole entry): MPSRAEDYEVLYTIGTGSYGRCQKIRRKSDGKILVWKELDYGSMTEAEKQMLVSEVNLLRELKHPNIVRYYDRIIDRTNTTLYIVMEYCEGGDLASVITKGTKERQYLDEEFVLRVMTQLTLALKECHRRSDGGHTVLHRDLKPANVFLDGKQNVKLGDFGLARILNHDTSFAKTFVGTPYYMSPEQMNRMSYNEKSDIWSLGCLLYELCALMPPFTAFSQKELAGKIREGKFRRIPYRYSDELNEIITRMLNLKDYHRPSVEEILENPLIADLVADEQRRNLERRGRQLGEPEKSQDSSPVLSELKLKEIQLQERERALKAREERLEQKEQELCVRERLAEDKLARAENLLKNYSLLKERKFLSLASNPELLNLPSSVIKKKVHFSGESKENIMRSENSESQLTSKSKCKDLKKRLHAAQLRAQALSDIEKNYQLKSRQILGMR
Calcium/calmodulin-dependent protein kinase type 1D (Homo sapiens), sequence (Q8IU85 whole entry, looked up): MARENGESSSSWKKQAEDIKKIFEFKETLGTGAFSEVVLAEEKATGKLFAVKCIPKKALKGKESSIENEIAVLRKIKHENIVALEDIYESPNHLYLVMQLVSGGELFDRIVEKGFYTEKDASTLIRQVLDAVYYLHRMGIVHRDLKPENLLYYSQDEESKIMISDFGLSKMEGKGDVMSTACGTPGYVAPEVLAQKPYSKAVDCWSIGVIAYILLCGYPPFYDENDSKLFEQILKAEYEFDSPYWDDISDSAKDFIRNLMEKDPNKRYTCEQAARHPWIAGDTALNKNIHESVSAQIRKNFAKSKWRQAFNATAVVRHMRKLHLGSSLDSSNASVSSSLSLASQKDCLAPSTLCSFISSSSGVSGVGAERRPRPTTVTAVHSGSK
Phosphatidylinositol 4,5-bisphosphate 3-kinase catalytic subunit alpha isoform (Homo sapiens), P42336 [M1043I], sequence (P42336 whole entry M1043I, canonical isoform): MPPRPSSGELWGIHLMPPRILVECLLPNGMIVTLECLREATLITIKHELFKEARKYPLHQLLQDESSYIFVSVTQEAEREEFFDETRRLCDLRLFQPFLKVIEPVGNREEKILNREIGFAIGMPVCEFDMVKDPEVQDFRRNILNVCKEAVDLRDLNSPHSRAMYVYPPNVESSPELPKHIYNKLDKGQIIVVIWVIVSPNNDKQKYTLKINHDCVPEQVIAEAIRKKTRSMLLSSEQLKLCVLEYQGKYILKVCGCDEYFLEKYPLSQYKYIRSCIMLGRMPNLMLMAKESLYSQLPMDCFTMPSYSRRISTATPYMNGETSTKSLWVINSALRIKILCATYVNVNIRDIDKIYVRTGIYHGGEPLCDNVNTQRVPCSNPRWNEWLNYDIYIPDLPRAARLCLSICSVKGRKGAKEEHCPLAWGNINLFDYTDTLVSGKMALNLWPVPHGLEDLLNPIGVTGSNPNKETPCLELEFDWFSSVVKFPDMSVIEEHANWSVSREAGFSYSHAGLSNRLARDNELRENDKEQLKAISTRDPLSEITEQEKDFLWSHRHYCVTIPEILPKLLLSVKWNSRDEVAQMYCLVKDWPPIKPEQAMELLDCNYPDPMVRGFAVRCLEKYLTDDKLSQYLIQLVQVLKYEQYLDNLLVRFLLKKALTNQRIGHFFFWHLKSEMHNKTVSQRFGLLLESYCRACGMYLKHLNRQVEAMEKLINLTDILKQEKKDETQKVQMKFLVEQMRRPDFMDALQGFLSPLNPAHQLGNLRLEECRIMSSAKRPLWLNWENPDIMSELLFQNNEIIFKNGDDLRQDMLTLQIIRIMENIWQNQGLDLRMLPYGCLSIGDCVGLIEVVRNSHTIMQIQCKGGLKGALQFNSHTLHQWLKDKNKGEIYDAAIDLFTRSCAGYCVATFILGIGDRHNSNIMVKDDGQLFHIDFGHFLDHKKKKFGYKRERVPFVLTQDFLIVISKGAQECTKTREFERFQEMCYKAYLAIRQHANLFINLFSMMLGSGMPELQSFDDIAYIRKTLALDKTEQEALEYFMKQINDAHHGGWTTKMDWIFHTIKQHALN
Activin receptor type-1 (Homo sapiens), sequence (Q04771 whole entry): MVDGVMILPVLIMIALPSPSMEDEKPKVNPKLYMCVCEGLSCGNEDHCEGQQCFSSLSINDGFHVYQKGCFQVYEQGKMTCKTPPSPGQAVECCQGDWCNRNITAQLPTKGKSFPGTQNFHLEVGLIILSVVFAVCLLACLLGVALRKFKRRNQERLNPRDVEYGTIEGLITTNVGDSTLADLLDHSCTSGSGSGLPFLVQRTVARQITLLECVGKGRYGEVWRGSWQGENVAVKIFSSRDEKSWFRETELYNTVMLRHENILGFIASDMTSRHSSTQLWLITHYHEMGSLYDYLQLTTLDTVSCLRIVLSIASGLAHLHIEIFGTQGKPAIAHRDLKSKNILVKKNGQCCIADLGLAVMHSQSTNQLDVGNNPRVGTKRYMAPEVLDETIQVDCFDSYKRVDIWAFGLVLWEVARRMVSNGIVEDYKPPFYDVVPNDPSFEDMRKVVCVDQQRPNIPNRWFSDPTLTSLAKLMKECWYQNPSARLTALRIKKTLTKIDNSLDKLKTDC

Q: With N#Cc1ccc(Nc2ccc3[nH]c(=O)[nH]c3c2)c(Cl)c1 as the molecule, how does the residual activity [1] read?
A: 77%

Q: What about the residual activity [2] of the same molecule?
A: 100%

Q: What about the residual activity [3] of the same molecule?
A: 93%

Q: And the residual activity [4]?
A: 89%

Q: And the residual activity [5]?
A: 93%

Q: What about the residual activity [6] of the same molecule?
A: 100%

Q: And the residual activity [7]?
A: 100%

Q: What about the residual activity [8] of the same molecule?
A: 100%

Q: What about the residual activity [9] of the same molecule?
A: 100%

Q: What about the residual activity [10] of the same molecule?
A: 100%

Q: And the residual activity [11]?
A: 92%

Q: What about the residual activity [12] of the same molecule?
A: 100%

Q: What about the residual activity [13] of the same molecule?
A: 92%

Q: What about the residual activity [14] of the same molecule?
A: 70%

Q: What about the inhibition [15] of the same molecule?
A: -5.44%

Q: And the residual activity [16]?
A: 91%

Q: And the residual activity [17]?
A: 95%

Q: And the residual activity [18]?
A: 93%

Q: And the residual activity [19]?
A: 100%

Q: What about the residual activity [20] of the same molecule?
A: 100%

Q: And the residual activity [21]?
A: 99%

Q: And the residual activity [22]?
A: 100%

Q: And the inhibition [23]?
A: 11%

Q: What about the residual activity [24] of the same molecule?
A: 77%

Q: What about the residual activity [25] of the same molecule?
A: 99%

Q: What about the inhibition [26] of the same molecule?
A: -9.92%

Q: And the residual activity [27]?
A: 55%

Q: What about the residual activity [28] of the same molecule?
A: 100%

Q: And the residual activity [29]?
A: 100%

Q: What about the residual activity [30] of the same molecule?
A: 98%

Q: What about the residual activity [31] of the same molecule?
A: 100%

Q: What about the residual activity [32] of the same molecule?
A: 93%

Q: And the residual activity [33]?
A: 100%

Q: What about the residual activity [34] of the same molecule?
A: 82%

Q: What about the residual activity [35] of the same molecule?
A: 100%

Q: What about the residual activity [36] of the same molecule?
A: 100%

Q: What about the residual activity [37] of the same molecule?
A: 100%

Q: And the residual activity [38]?
A: 97%

Q: And the residual activity [39]?
A: 100%

Q: And the residual activity [40]?
A: 100%

Q: And the residual activity [41]?
A: 100%

Q: And the residual activity [42]?
A: 93%

Q: And the residual activity [43]?
A: 100%

Q: And the residual activity [44]?
A: 100%

Q: And the residual activity [45]?
A: 100%

Q: What does the source list for O=C1CCc2cc(Nc3cc(OC4CCOCC4)c([N+](=O)[O-])cc3Cl)ccc2N1?
A: residual activity [1]: 100%; residual activity [2]: 100%; residual activity [3]: 89%; residual activity [4]: 100%; residual activity [5]: 83%; residual activity [6]: 99%; residual activity [7]: 80%; residual activity [8]: 100%; residual activity [9]: 100%; residual activity [10]: 80%; residual activity [11]: 100%; residual activity [12]: 97%; residual activity [13]: 88%; residual activity [14]: 53%; inhibition [15]: -4.09%; residual activity [16]: 83%; residual activity [17]: 72%; residual activity [18]: 100%; residual activity [19]: 100%; residual activity [20]: 94%; residual activity [21]: 67%; residual activity [22]: 100%; inhibition [23]: 3.31%; residual activity [24]: 72%; residual activity [25]: 100%; inhibition [26]: -4.43%; residual activity [27]: 40%; residual activity [28]: 92%; residual activity [29]: 100%; residual activity [30]: 95%; residual activity [31]: 87%; residual activity [32]: 95%; residual activity [33]: 96%; residual activity [34]: 87%; residual activity [35]: 100%; residual activity [36]: 100%; residual activity [37]: 100%; residual activity [38]: 100%; residual activity [39]: 96%; residual activity [40]: 81%; residual activity [41]: 92%; residual activity [42]: 94%; residual activity [43]: 100%; residual activity [44]: 100%; residual activity [45]: 97%
